Data as given in patent publication US20060089352A1, “Substituted thiazines as material protecting agents” (priority 2002, published 2006).

Tests used:
Format in all cases: cell-based
Aspergillus niger = assay: Minimum inhibitory concentration (MIC) on malt extract agar; settings: 2 weeks incubation at 28° C., 60 to 70% relative atmospheric humidity
Protocol: (§1) The MIC was determined after 2 weeks of incubation at 28° C. and 60 to 70% relative atmospheric humidity. The MIC is the lowest concentration of active compound at which there is no colonization by the microbial species used; it is indicated in Table 2.

Chaetomium globosum = assay: as above; settings: 2 weeks incubation at 28° C., 60 to 70% relative atmospheric humidity
Protocol: as §1

Penicillium brevicaule = assay: as above; settings: 2 weeks incubation at 28° C., 60 to 70% relative atmospheric humidity
Protocol: as §1

[1] = test system: mold fungi (Alternaria tenuis, Aspergillus flavus, Aspergillus niger, Aspergillus ustus, Cindosporum herbarum, Paecilomyces variotii, Penicillium citrium …); assay: Test of dispersion coatings for resistance to mold; settings: coatings according to recipe A containing 1.5% (based on solids) of compound; even after rinsing out and wind tunnel exposure; 2-3 weeks storage, 29±1° C., 80-90% rel. humidity
Protocol: To test dispersion coatings for resistance to mold, the following procedure was adopted:
The paint to be tested was applied to both sides of a suitable base. To obtain results which are close to practice, some of the test specimens were rinsed out with running water (24 h, 20° C.) before the test for mold resistance; others were treated with a current of warm fresh air (7 days, 40° C.).
The samples prepared in this way were then placed on an agar nutrient medium, and both samples and nutrient medium were contaminated with fungal spores. After 2-3 weeks storage (29±1° C., 80-90% rel. atmospheric humidity), the samples were compared.
The coating is considered to be permanently mold-resistant if the sample remains free from fungus or at most a slight border infestation can be detected.
For the contamination, fungal spores of the following mold fungi were used, which are known as paint destroyers or are frequently encountered on coatings: • Alternaria tenuis • Aspergillus flavus • Aspergillus niger • Aspergillus ustus • Cindosporum herbarum • Paecilomyces variotii • Penicillium citrium • Aureobasidium pullulans • Stachybotrys chartarum
Recipe A: Exterior dispersion paint based on Acroal 290 D (styrene acrylate)

Compound | Minimum inhibitory concentrations Aspergillus niger (Aspergillus niger) | Minimum inhibitory concentrations Chaetomium globosum (Chaetomium globosum) | Minimum inhibitory concentrations Penicillium brevicaule (Penicillium brevicaule) | Mold resistance of coating [1]
COc1cccc(SC2=NCCC(C)S2)c1 (centres unmarked) [Example 67] | <200 ppm | <100 ppm | <100 ppm | 
CC1CN=C(Sc2ccccc2)SC1 (centres unmarked) [Example 11] | <50 ppm | <50 ppm | <50 ppm | 
COc1ccc(SC2=NCC(C)CS2)cc1 (centres unmarked) [Example 1] | <200 ppm | <100 ppm | <100 ppm | 
CC1CCN=C(Sc2ccccc2)S1 (centres unmarked) [Example 62] | <100 ppm | <100 ppm | <50 ppm | 
CC1(C)CN=C(Sc2cccc(F)c2)SC1 [Example 51] | 200 ppm | <200 ppm | <200 ppm | 
COc1ccc(SC2=NCC(C)(C)CS2)cc1 [Example 47] |  |  |  | mold resistant
CC1CN=C(Sc2ccc(Cl)cc2)SC1 (centres unmarked) [Example 6] | 50 ppm | 20 ppm | 20 ppm | 
CC1(C)CCSC(Sc2ccc(Cl)cc2)=N1 [Example 61] |  | 200 ppm |  | 
CC1(C)CN=C(Sc2cccs2)SC1 [Example 45] | <200 ppm | <50 ppm | <50 ppm | 
c1ccc(SC2=NC3CCCC3CS2)cc1 (centres unmarked) [Example 81] |  | <100 ppm | 200 ppm | 
Cc1ccc(SC2=NC3CCCC3CS2)cc1 (centres unmarked) [Example 82] |  | 100 ppm |  | 
c1csc(SC2=NC3CCCC3CS2)c1 (centres unmarked) [Example 79] |  | <100 ppm | 100 ppm | 
COc1ccc(SC2=NC3CCCCC3CS2)cc1 (centres unmarked) [Example 4] |  | 100 ppm |  | 
